BigSolDB 2.1

CC1(C)COP(=O)(C(C)(O)c2ccccc2)OC1 (configuration not stated)
Details	solubility (mole fraction)
in 1,2-dichloroethane, 278.35 K	0.00107
in 1,2-dichloroethane, 283.25 K	0.00117
in 1,2-dichloroethane, 288.45 K	0.00154
in 1,2-dichloroethane, 293.35 K	0.00171
in 1,2-dichloroethane, 298.25 K	0.00218
in 1,2-dichloroethane, 303.15 K	0.00258
in 1,2-dichloroethane, 308.25 K	0.00291
in 1,2-dichloroethane, 313.15 K	0.00359
in 1,2-dichloroethane, 318.05 K	0.00454
in 1,2-dichloroethane, 322.95 K	0.00542
in 1,2-dichloroethane, 328.15 K	0.00651
in 1,2-dichloroethane, 333.25 K	0.00803
in 1,2-dichloroethane, 338.15 K	0.00933
in acetone, 278.15 K	0.00106
in acetone, 283.25 K	0.00132
in acetone, 288.45 K	0.0018
in acetone, 293.25 K	0.0023
in acetone, 298.35 K	0.0031
in acetone, 303.35 K	0.00363
in acetone, 308.15 K	0.00469
in acetone, 313.25 K	0.00547
in acetone, 318.05 K	0.00593
in acetone, 323.15 K	0.00616
in acetonitrile, 283.25 K	0.00144
in acetonitrile, 288.45 K	0.00169
in acetonitrile, 293.35 K	0.00198
in acetonitrile, 298.25 K	0.00221
in acetonitrile, 303.25 K	0.00268
in acetonitrile, 308.15 K	0.00342
in acetonitrile, 313.35 K	0.00392
in acetonitrile, 318.15 K	0.0046
in acetonitrile, 323.05 K	0.00562
in acetonitrile, 327.95 K	0.00654
in acetonitrile, 333.05 K	0.00866
in chloroform, 278.25 K	0.0048
in chloroform, 283.35 K	0.00547
in chloroform, 288.15 K	0.00651
in chloroform, 293.05 K	0.00768
in chloroform, 298.45 K	0.00866
in chloroform, 303.35 K	0.00944
in chloroform, 308.15 K	0.0111
in chloroform, 313.05 K	0.0128
in chloroform, 317.95 K	0.0154
in chloroform, 323.15 K	0.0188
in ethanol, 278.45 K	0.00558
in ethanol, 283.25 K	0.00618
in ethanol, 288.15 K	0.0068
in ethanol, 293.25 K	0.00786
in ethanol, 298.35 K	0.00933
in ethanol, 303.05 K	0.0106
in ethanol, 307.95 K	0.0125
in ethanol, 313.05 K	0.014
in ethanol, 318.15 K	0.0169
in ethanol, 323.05 K	0.0195
in ethanol, 327.95 K	0.0239
in ethanol, 333.15 K	0.0293
in ethanol, 338.05 K	0.0327
in ethanol, 343.15 K	0.0374
in ethyl acetate, 297.95 K	0.00054
in ethyl acetate, 303.35 K	0.00092
in ethyl acetate, 308.45 K	0.00131
in ethyl acetate, 313.15 K	0.00166
in ethyl acetate, 318.05 K	0.00221
in ethyl acetate, 323.05 K	0.0024
in ethyl acetate, 328.35 K	0.00283
in ethyl acetate, 333.25 K	0.00307
in ethyl acetate, 338.15 K	0.00336
in ethyl acetate, 342.95 K	0.0036
in methanol, 283.35 K	0.0112
in methanol, 288.15 K	0.0132
in methanol, 293.25 K	0.0146
in methanol, 298.31 K	0.0168
in methanol, 303.15 K	0.0196
in methanol, 307.95 K	0.0223
in methanol, 313.05 K	0.0259
in methanol, 317.95 K	0.0285
in methanol, 323.15 K	0.0321
